For one assay, the system named is measles virus. As to the kind of experiment: microbe, parasite or virus in culture. The settings on record: Measles morbillivirus.
The next assay has as its system Jurkat cells. As to the kind of experiment: inhibition of the proliferation of Jurkat cells (CellTiter-Glo). It is filed as cell-based. The settings on record: Homo sapiens, 72 h, read-out: IC50, Jurkat cells proliferation. On the technique in general: In ATP-based viability assays light output follows the ATP content of the culture.

≈ marks a conversion by molar mass, not a printed value.

Method for Jurkat cells: As a control, cells were treated with DMSO alone. At t=0 and after 72 hours of culture, the number of living cells was determined using the CellTiter-Glo reagent. The inhibition of cellular proliferation is expressed as a percentage relative to DMSO-treated control wells. Presented results correspond to the mean ± SD of two independent experiments.
Jurkat cells were cultured in at 5.10+4 cells per well in flat-bottom 96-well culture dishes. […] Number of living cells was determined by quantification of adenosine triphosphate (ATP) in culture wells using the CellTiter-Glo Assay (Promega) following manufacturer's recommendations.

`C/C(O)=C(\C#N)C(=O)Nc1ccc(C(F)(F)F)cc1` [Teriflunomide, reference compound] showed an MIC50 in the assay on measles virus of 50 µM (≈ 13.5 µg/mL). The IC50 in the assay on Jurkat cells is around 60 µM.

These data come from EP2929883A1, “Pyrazole derivatives as dihydroorotate dehydrogenase (DHODH) inhibitors” (INSTITUT PASTEUR, priority 2014, dated 2015).
